Measured values: patent US7342133B2, “Substituted amino compounds as 5-HT/NA uptake inhibitors” (Gruenenthal GmbH, priority 2004, dated 2008)

Tests used:
[1] = test system: formalin-induced nociceptive behaviour (chronic pain component); experiment: Analgesic activity in the formalin test in the mouse; format: in vivo
Description: b) Studies of Analgesic Activity in the Formalin Test in the Mouse The formalin test (Dubuisson, D. and Dennis, S. G., 1977, Pain, 4, 161-174) represents a model for acute and chronic pain. In the studies presented here, the chronic pain component was evaluated. By means of a single formalin injection into the dorsal side of a rear paw, a biphase nociceptive reaction is induced in freely mobile test animals; the reaction is assessed by observing three markedly different behaviour patterns. Formalin is injected subcutaneously in a volume of 20 μl and a concentration of 1% into the dorsal side of the right rear paw of each animal. The specific behavioural changes differing from normal behaviour (score 0), such as lifting (score 1) and shaking of the paw (score 2), as well as biting and licking reactions (score 3), are observed and recorded continuously at 3-minute intervals for 60 minutes after the formalin injection. […] The size of the group was 10 animals (n=10). On the basis of the PR calculations, the activity of the substance was determined in percent as the change relative to a control. The ED50 was determined by means of regression analysis.

[2] = test system: duration of the phase of immobility; experiment: Antidepressant activity in the forced swimming test (Porsolt test) in the mouse; format: in vivo; settings: for Relative duration of the phase of immobility versus control: i.p.
Description: d) Study of Antidepressant Activity in the Forced Swimming Test (Porsolt Test) in the Mouse The studies to determine the antidepressant activity of the compounds of formula I according to the invention were carried out in the forced swimming test (Porsolt test) in the mouse (Porsolt, R. et al., Arch. Int. Pharmacodyn. Vol. 229, p. 327-336 (1977)). Male mice (20-25 g body weight) were placed individually for a period of 6 minutes into a flat water tank from which they were unable to escape and accordingly were forced to swim. After some time, the animals gave up their attempts to swim and entered a phase of immobility. In the interval of from 2 to 6 minutes after introduction of the animal, the duration of the phase of immobility was determined. Test substance and vehicle groups each comprise 10 animals. Changes in the duration of the phase of immobility are stated relative to the vehicle control. Antidepressants induce a shortening of the phase of immobility.

5-HT reuptake = experiment: Inhibition of 5-HT reuptake in rat brain synaptosomes (P2 fraction, medulla + pons region); format: biochemical; settings: for Ki: medulla + pons, Ki from IC50 by Cheng-Prusoff
Description: (§1) a) Studies of the inhibition of 5-HT and NA reuptake
(§2) In order to be able to carry out these in vitro studies, synaptosomes are freshly isolated from areas of rat brain. A so-called “P2” fraction is used in each case, which is prepared exactly according to the procedure of Gray, E. G. and Whittaker, V. P. (J. Anat. 76, 79-88, 1962). For NA reuptake, these vesicular particles are isolated from the hypothalamus of male rat brains, and for 5-HT reuptake, they are isolated from the medulla +pons region.
(§3) The following characteristic data were determined for the NA and 5-HT reuptake: • NA uptake: Km=0.32±0.11 μM • 5-HT uptake: Km=0.084±0.011 μM (in each case N=4, i.e. mean values ± SEM from 4 independent test series which were carried out in triplicate parallel tests).
(§4) A detailed description of the method can be found in the publication of Frink, M., Hennies, H. H., Englberger, W. et al. (Arzneim.-Forsch./Drug Res. 46 (III), 11, 1029-1036, 1996) (the batch can also be carried out on microtitre plates (250 μl/well) at room temperature).
(§5) In addition to % inhibitions at fixed concentrations of test substance (e.g. 1×10^−6 M or 1×10^−5 M in the batch), dose dependencies were also checked. IC50 values were obtained thereby which can be converted into inhibitor constants (Ki) according to the “Cheng-Prusoff equation” (Cheng, Y. C. and Prusoff, W. H., Biochem. Pharmacol. 22, 3099-3108, 1973). The IC50 values were obtained with the aid of the “Figure P” computer program (Version 6.0, Biosoft, Cambridge, England). Km values were calculated according to Lineweaver, H. and Burk, D. (J. Am. Chem. Soc. 56, 658-666, 1934). The “Ligand” computer program (Version 4, Biosoft, England) was used to show KD values.

[3] = test system: phenylquinone-induced writhing reactions; experiment: Analgesic activity in the writhing test in the mouse; format: in vivo
Description: c) Studies of Analgesic Activity in the Writhing Test in the Mouse
The writhing test in the mouse is a modification of the method according to Hendershot L C, Forsaith, J, J Pharmacol Exp Ther 125: 237-240 (1959).
0.3 ml/animal of a 0.02% aqueous phenylquinone solution, with the addition of 5% ethanol, is administered intraperitoneally to the animals as pain stimulus. This solution is administered 30 minutes (test substance p.o.) or 10 minutes (test substance i.v.) after administration of the test substance. The pain-induced stretching movements (so-called writhing reactions=straightening of the body with extension of the rear extremities) are recorded 5 to 20 minutes after the administration of phenylquinone. The animals treated with the test substance are compared with a control group that received physiological saline. Size of the group n=10.

NA reuptake = experiment: Inhibition of NA reuptake in rat brain synaptosomes (P2 fraction, hypothalamus); format: biochemical; settings: for Ki: hypothalamus, Ki from IC50 by Cheng-Prusoff
Description: as §1, §2, §3, §4, §5

Compound | Inhibition of the nociceptive behaviour, formalin test (in words) [1] | ED50 ([1]; iv, chronic pain component) | Shortening of the phase of immobility, forced swimming test (in words) [2] | Relative duration of the phase of immobility versus control ([2]; 10 mg/kg) | Relative duration of the phase of immobility versus control ([2]; 21.5 mg/kg) | Relative duration of the phase of immobility versus control ([2]; 31.6 mg/kg, ***p < 0.001) | Relative duration of the phase of immobility versus control ([2]; 46.4 mg/kg, ***p < 0.001) | Inhibition of 5-HT reuptake (in words) (5-HT reuptake) | Ki (5-HT reuptake) | Inhibition of the nociceptive behaviour, writhing test (in words) [3] | ED50 ([3]; i.v., phenylquinone i.p.) | Inhibition of NA reuptake (in words) (NA reuptake) | Ki (NA reuptake) | melting point
CN(C)CC1=C(Cc2ccc(Cl)cc2)CCCCC1.Cl [Example 1, [2-(4-Chlorobenzyl)-cyclohept-1-enylmethyl]-dimethylamine; hydrochloride] | dose-dependent inhibition | 4.71 mg/kg | significant shortening of the phase of immobility | +9% | −34% | −67%*** | −76%*** | dose-dependent inhibition | 3 nM | dose-dependent inhibition | 3.04 mg/kg | dose-dependent inhibition | 30 nM | 
CN(C)CC1=C(Cc2ccc(Cl)cc2)CCC1.Cl |  |  |  |  |  |  |  |  |  |  |  |  |  | 191 °C
CN(C)CC1=C(Cc2ccc(Cl)cc2)CCCCCC1.Cl [Example 2b, [2-(4-chlorobenzyl)-cyclooct-1enylmethyl]-dimethylamine; hydrochloride] |  |  |  |  |  |  |  | dose-dependent inhibition | 30 nM |  |  | dose-dependent inhibition | 340 nM | 234 to 237 °C
